Assays:
Format in all cases: biochemical, Trichoderma atroviride
Chi18 model RNA [1] = test: TapeStation Assay, Chi18 model RNA; design: Conc. chi18#1 / Conc. chi18#2: unit not given here; conditions: for % Control N = 1 / % Control N = 2 / % Control Avg.: Chi18 RNA, 20 mM amino acids, 50 mM CAPS pH 11, 50° C. 15 min; for % Control N = 1 / % Control N = 2: vs Time 0; for % Control Avg.: vs Time 0, Avg N=2; for Conc. chi18#1: 20 mM amino acids in 50 mM CAPS pH 11, run #1
Experimental: (§1) These assays were performed with amino acids and compared to a no-degradation baseline control to gauge degree of protection imparted by the amino acid. Multiple functional assay approaches were used where differing endpoints were measured including a droplet digital PCR (ddPCR) assay where intact RNA sequence was quantitated, a size exclusion base hydrolysis degradation assay that used a size exclusion column to determine the degree of degradation occurring to an mRNA construct, and finally, a TapeStation assay that utilizes capillary electrophoresis and optical detection to measure intact RNA. […] Affinity selection by mass spectrometry (ASMS), native electrospray ionization mass spectrometry (nESI-MS) and nuclear magnetic resonance (NMR) may be used as several complementary approaches to ascertain compound binding to RNA. The latter techniques utilize MS to measure mass of bound compound alone (ASMS), or mass of RNA and bound compound (nESI-MS). The nESI-MS and NMR studies may be conducted to provide direct analytical quantification of resulting complex via measurement of mass (nESI-MS) or chemical shifts (NMR). The ASMS experiment is conducted to determine saturation binding of the compound to RNA where resulting apparent binding constants (KD,App) may be generated. Further descriptions of the functional and binding assays are provided in the section below.
(§2) In principle, samples are loaded to the instrument where electrophoresis separates component RNA's on the basis of mass, and subsequently analyzes these optically as they travel through the capillary.
(§3) RNA samples were diluted to the appropriate concentration to fall within the linear range of detection for the RNA ScreenTape Assay. Model Chi18 or FgenL RNAs were diluted to 50 ng/μL in 50 mM CAPS buffer pH 11. Amino acid stocks were made up in 50 mM CAPS pH 11 and re-adjusted to >pH 11 after solubilization. […] The samples were aliquoted to PCR tubes for each time point (Time 0 or 15 minutes). Degradation reaction: Samples were incubated at 50° C. for 0 to 15 minutes in a thermocycler, removed at the appropriate time point and placed on ice. Time 0 samples remained on ice.

FgenL model RNA [2] = test: TapeStation Assay, FgenL model RNA; design: Conc. FgenL#1 / Conc. FgenL#2: unit not given here; conditions: for % Control N = 1 / % Control N = 2 / % Control Average: FgenL RNA, 20 mM amino acids, 50 mM CAPS pH 11, 50° C. 15 min; for % Control N = 1 / % Control N = 2: vs Time 0; for % Control Average: vs Time 0, Avg N=2; for Conc. FgenL#1 / Conc. FgenL#2: intact FgenL RNA after 15 min at 50° C.; for Conc. FgenL#1: 20 mM amino acids in 50 mM CAPS pH 11, run #1; for Conc. FgenL#2: 20 mM amino acids in 50 mM CAPS pH 11, run #2
Experimental: as §1, §2, §3

FgenL model RNA [3] = conditions: percent protection, pH 11.0, 44° C., 16 hours, n = 2
Experimental: (§4) The ddPCR assays measure RNA integrity by converting intact RNA to cDNA by reverse transcription, then performing digital PCR in thousands of nanoliter-sized droplets for each sample. PCR is performed within each droplet, which allows for more sensitive detection of subtle changes in RNA concentration compared to traditional PCR or qPCR. Additionally, primers/probes specific to the 5′ end of the RNA/cDNA transcript(s) are used to assess fragment integrity—e.g. degraded RNA will have fewer 5′ positive droplets. The BioRad QX200 Droplet Digital PCR System was used for the ddPCR workflow.
(§5) Basic assay procedure: RNA samples (Chi18 or FgenL fragments) were diluted to 25 fg/μL or 10 fg/μL, respectively, in 50 mM […] buffer pH 11.0. Amino acid stocks were made up in 50 mM CAPS buffer, pH 11.0 and subsequently re-adjusted to pH 11.0, post solubilization. Amino acid stocks were tested in a dose-response format to determine EC50. An amino acid dilution plate containing a ˜300 mM (or appropriate) top-concentration of amino acid in 50 mM CAPS buffer was serially (half-log) diluted for 10 times. 0.6 μL of this compound dilution plate was spotted into a 96-well PCR plate (Thermo). Sample RNAs were added (6 μL) and incubated with test amino acid as described below.
(§6) Degradation reaction: Treated RNAs were incubated for 16 hours at 30° C. for Chi18 samples or 44° C. for FgenL samples. Upon completion of the degradation reaction, cDNA was made from the intact RNA by Reverse Transcription and ddPCR run for each sample (96 well plates). Positive 5′ droplet values were divided by the total accepted droplet values for each sample and a ratio value generated for each sample.
(§7) EC50 was determined by using a four parameter logistic equation: Y=A+((B−A)/(1+(C/X)D)); where Y is percent protection, X is compound concentration, A and B are minimum and maximum asymptotes, respectively, C is EC50, and D is Hill slope.

Chi18 model RNA [4] = test: Droplet Digital Polymerase Chain Reaction (ddPCR) Assay, Chi18; conditions: percent protection, pH 11.0, 30° C., 16 hours, n = 2
Experimental: as §4, §5, §6, §7

[5] = intact Chi18 RNA after 15 min at 50° C.

SMILES | % Control N = 1 (Chi18 model RNA [1]) [%] | % Control N = 2 (Chi18 model RNA [1]) [%] | % Control Avg. (Chi18 model RNA [1]) [%] | Conc. chi18#1 (Chi18 model RNA [1]; [5]) | % Control N = 1 (FgenL model RNA [2]) [%] | % Control N = 2 (FgenL model RNA [2]) [%] | % Control Average (FgenL model RNA [2]) [%] | Conc. FgenL#1 (FgenL model RNA [2]) | Conc. FgenL#2 (FgenL model RNA [2]) | EC50 (FgenL model RNA [3]) [mM] | EC50 (Chi18 model RNA [4]) [mM] | Conc. chi18#2 (Chi18 model RNA [1]; intact Chi18 RNA after 15 min at 50° C., 20 mM amino acids in 50 mM CAPS pH 11, run #2)
O=C(O)CCP(CCC(=O)O)CCC(=O)O [TCEP, tris(2-carboxyethyl)phosphine] | 2.6 | 2.6 | 2.6 | 1.41 | 5.0 | 4.0 | 4.5 | 1.71 | 1.38 | > 30 | > 30 | –
O[C@H](CS)[C@H](O)CS (racemic) [DTT, dithiothreitol] | 10.7 | 10.7 | 10.7 | 5.68 | 8.3 | 9.0 | 8.7 | 2.86 | 3.13 | – | – | –
N[C@@H](CSSC[C@H](N)C(=O)O)C(=O)O [Cystine] | 53.1 | 42.7 | 47.9 | 28.3 | 75.9 | 64.6 | 70.2 | 26.2 | 22.4 | > 30 | > 29 | 22.6
